Measured values as given in patent US20150094474A1, “AGRICULTURAL CHEMICALS” (Redx Pharma Ltd., priority 2012, published 2015).

How the values were obtained:
barley = experiment: Herbicidal bioassay, barley (% necrosis); format: in vivo
Procedure, shortened: (§1)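 Lolium perenne, barley, peas and Chinese cabbage at 2-4 true leaf stage sprayed simultaneously with a Potter tower, compounds in DMSO at six concentrations (0.05% to 0.0001%). Phytotoxicity scored as % necrosis per EPPO PP1/135 at set intervals; five replicates per treatment and species; DMSO and water controls.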

peas = experiment: Herbicidal bioassay, peas (% necrosis); format: in vivo
Procedure, shortened: as §1

CC(/C=N/O)Oc1ccc(Oc2ccc(C(F)(F)F)cn2)cc1 (stereo not drawn) [Compound 64, (1E)-2-[4-[[5-(Trifluoromethyl)-2-pyridyl]oxy]phenoxy]propanal oxime]
C (less than 50% necrosis): Sum of % necrosis in barley (barley; Dose 0.000001, Day 0) | Sum of % necrosis in barley (barley; Dose 0.000001, Day 1) | Sum of % necrosis in barley (barley; Dose 0.000001, Day 3) | Sum of % necrosis in barley (barley; Dose 0.000001, Day 7) | Sum of % necrosis in barley (barley; Dose 0.000001, Day 10) | Sum of % necrosis in barley (barley; Dose 0.000001, Day 14) | Sum of % necrosis in barley (barley; Dose 0.000001, Day 21) | Sum of % necrosis in barley (barley; Dose 0.000005, Day 0) | Sum of % necrosis in barley (barley; Dose 0.000005, Day 1) | Sum of % necrosis in barley (barley; Dose 0.000005, Day 3) | Sum of % necrosis in barley (barley; Dose 0.000005, Day 7) | Sum of % necrosis in barley (barley; Dose 0.000005, Day 10) | Sum of % necrosis in barley (barley; Dose 0.000005, Day 14) | Sum of % necrosis in barley (barley; Dose 0.000005, Day 21) | Sum of % necrosis in barley (barley; Dose 0.00001, Day 0) | Sum of % necrosis in barley (barley; Dose 0.00001, Day 1) | Sum of % necrosis in barley (barley; Dose 0.00001, Day 3) | Sum of % necrosis in barley (barley; Dose 0.00001, Day 7) | Sum of % necrosis in barley (barley; Dose 0.00001, Day 10) | Sum of % necrosis in barley (barley; Dose 0.00001, Day 14) | Sum of % necrosis in barley (barley; Dose 0.00001, Day 21) | Sum of % necrosis in barley (barley; Dose 0.00005, Day 0) | Sum of % necrosis in barley (barley; Dose 0.00005, Day 1) | Sum of % necrosis in barley (barley; Dose 0.00005, Day 3) | Sum of % necrosis in barley (barley; Dose 0.00005, Day 7) | Sum of % necrosis in barley (barley; Dose 0.00005, Day 10) | Sum of % necrosis in barley (barley; Dose 0.00005, Day 14) | Sum of % necrosis in barley (barley; Dose 0.00005, Day 21) | Sum of % necrosis in barley (barley; Dose 0.0001, Day 0) | Sum of % necrosis in barley (barley; Dose 0.0001, Day 1) | Sum of % necrosis in barley (barley; Dose 0.0001, Day 3) | Sum of % necrosis in barley (barley; Dose 0.0001, Day 7) | Sum of % necrosis in barley (barley; Dose 0.0001, Day 10) | Sum of % necrosis in barley (barley; Dose 0.0001, Day 14) | Sum of % necrosis in barley (barley; Dose 0.0001, Day 21) | Sum of % necrosis in barley (barley; Dose 0.0005, Day 0) | Sum of % necrosis in barley (barley; Dose 0.0005, Day 1) | Sum of % necrosis in barley (barley; Dose 0.0005, Day 3) | Sum of % necrosis in barley (barley; Dose 0.0005, Day 7) | Sum of % necrosis in Peas (peas; Dose 0.000001, Day 0) | Sum of % necrosis in Peas (peas; Dose 0.000001, Day 1) | Sum of % necrosis in Peas (peas; Dose 0.000001, Day 3) | Sum of % necrosis in Peas (peas; Dose 0.000001, Day 7) | Sum of % necrosis in Peas (peas; Dose 0.000001, Day 10) | Sum of % necrosis in Peas (peas; Dose 0.000001, Day 14) | Sum of % necrosis in Peas (peas; Dose 0.000005, Day 0) | Sum of % necrosis in Peas (peas; Dose 0.000005, Day 1) | Sum of % necrosis in Peas (peas; Dose 0.000005, Day 3) | Sum of % necrosis in Peas (peas; Dose 0.000005, Day 7) | Sum of % necrosis in Peas (peas; Dose 0.000005, Day 10) | Sum of % necrosis in Peas (peas; Dose 0.000005, Day 14) | Sum of % necrosis in Peas (peas; Dose 0.000005, Day 21) | Sum of % necrosis in Peas (peas; Dose 0.00001, Day 0) | Sum of % necrosis in Peas (peas; Dose 0.00001, Day 1) | Sum of % necrosis in Peas (peas; Dose 0.00001, Day 3) | Sum of % necrosis in Peas (peas; Dose 0.00001, Day 7) | Sum of % necrosis in Peas (peas; Dose 0.00001, Day 10) | Sum of % necrosis in Peas (peas; Dose 0.00005, Day 0) | Sum of % necrosis in Peas (peas; Dose 0.00005, Day 1) | Sum of % necrosis in Peas (peas; Dose 0.00005, Day 3) | Sum of % necrosis in Peas (peas; Dose 0.00005, Day 7) | Sum of % necrosis in Peas (peas; Dose 0.00005, Day 10) | Sum of % necrosis in Peas (peas; Dose 0.00005, Day 14) | Sum of % necrosis in Peas (peas; Dose 0.00005, Day 21) | Sum of % necrosis in Peas (peas; Dose 0.0001, Day 0) | Sum of % necrosis in Peas (peas; Dose 0.0001, Day 1) | Sum of % necrosis in Peas (peas; Dose 0.0001, Day 3) | Sum of % necrosis in Peas (peas; Dose 0.0001, Day 7) | Sum of % necrosis in Peas (peas; Dose 0.0001, Day 10) | Sum of % necrosis in Peas (peas; Dose 0.0005, Day 0) | Sum of % necrosis in Peas (peas; Dose 0.0005, Day 1) | Sum of % necrosis in Peas (peas; Dose 0.0005, Day 3) | Sum of % necrosis in Peas (peas; Dose 0.0005, Day 7) | Sum of % necrosis in Peas (peas; Dose 0.0005, Day 10) | Sum of % necrosis in Peas (peas; Dose 0.0005, Day 14)
A (over 80% necrosis): Sum of % necrosis in Peas (peas; Dose 0.00001, Day 21) | Sum of % necrosis in Peas (peas; Dose 0.0001, Day 21) | Sum of % necrosis in Peas (peas; Dose 0.0005, Day 21)
B (50%-80% necrosis): Sum of % necrosis in barley (barley; Dose 0.0005, Day 10) | Sum of % necrosis in barley (barley; Dose 0.0005, Day 14) | Sum of % necrosis in barley (barley; Dose 0.0005, Day 21) | Sum of % necrosis in Peas (peas; Dose 0.000001, Day 21) | Sum of % necrosis in Peas (peas; Dose 0.00001, Day 14) | Sum of % necrosis in Peas (peas; Dose 0.0001, Day 14)

CC(/C=N/OCc1ccccc1)Oc1ccc(Oc2ccc(C(F)(F)F)cn2)cc1 (stereo not drawn) [Compound 65, N-Benzyloxy-2-[4-[[5-(trifluoromethyl)-2-pyridyl]oxy]phenoxy]propan-1-imine]
C (less than 50% necrosis): Sum of % necrosis in barley (barley; Dose 0.000001, Day 0) | Sum of % necrosis in barley (barley; Dose 0.000001, Day 1) | Sum of % necrosis in barley (barley; Dose 0.000001, Day 3) | Sum of % necrosis in barley (barley; Dose 0.000001, Day 7) | Sum of % necrosis in barley (barley; Dose 0.000001, Day 10) | Sum of % necrosis in barley (barley; Dose 0.000001, Day 14) | Sum of % necrosis in barley (barley; Dose 0.000005, Day 0) | Sum of % necrosis in barley (barley; Dose 0.000005, Day 1) | Sum of % necrosis in barley (barley; Dose 0.000005, Day 3) | Sum of % necrosis in barley (barley; Dose 0.000005, Day 7) | Sum of % necrosis in barley (barley; Dose 0.000005, Day 10) | Sum of % necrosis in barley (barley; Dose 0.000005, Day 14) | Sum of % necrosis in barley (barley; Dose 0.00001, Day 0) | Sum of % necrosis in barley (barley; Dose 0.00001, Day 1) | Sum of % necrosis in barley (barley; Dose 0.00001, Day 3) | Sum of % necrosis in barley (barley; Dose 0.00001, Day 7) | Sum of % necrosis in barley (barley; Dose 0.00001, Day 10) | Sum of % necrosis in barley (barley; Dose 0.00001, Day 14) | Sum of % necrosis in barley (barley; Dose 0.00005, Day 0) | Sum of % necrosis in barley (barley; Dose 0.00005, Day 1) | Sum of % necrosis in barley (barley; Dose 0.00005, Day 3) | Sum of % necrosis in barley (barley; Dose 0.00005, Day 7) | Sum of % necrosis in barley (barley; Dose 0.00005, Day 10) | Sum of % necrosis in barley (barley; Dose 0.00005, Day 14) | Sum of % necrosis in barley (barley; Dose 0.0001, Day 0) | Sum of % necrosis in barley (barley; Dose 0.0001, Day 1) | Sum of % necrosis in barley (barley; Dose 0.0001, Day 3) | Sum of % necrosis in barley (barley; Dose 0.0001, Day 7) | Sum of % necrosis in barley (barley; Dose 0.0001, Day 10) | Sum of % necrosis in barley (barley; Dose 0.0001, Day 14) | Sum of % necrosis in barley (barley; Dose 0.0005, Day 0) | Sum of % necrosis in barley (barley; Dose 0.0005, Day 1) | Sum of % necrosis in barley (barley; Dose 0.0005, Day 3) | Sum of % necrosis in barley (barley; Dose 0.0005, Day 7) | Sum of % necrosis in barley (barley; Dose 0.0005, Day 10) | Sum of % necrosis in barley (barley; Dose 0.0005, Day 14) | Sum of % necrosis in Peas (peas; Dose 0.000001, Day 0) | Sum of % necrosis in Peas (peas; Dose 0.000001, Day 1) | Sum of % necrosis in Peas (peas; Dose 0.000001, Day 3) | Sum of % necrosis in Peas (peas; Dose 0.000001, Day 7) | Sum of % necrosis in Peas (peas; Dose 0.000001, Day 10) | Sum of % necrosis in Peas (peas; Dose 0.000001, Day 14) | Sum of % necrosis in Peas (peas; Dose 0.000005, Day 0) | Sum of % necrosis in Peas (peas; Dose 0.000005, Day 1) | Sum of % necrosis in Peas (peas; Dose 0.000005, Day 3) | Sum of % necrosis in Peas (peas; Dose 0.000005, Day 7) | Sum of % necrosis in Peas (peas; Dose 0.000005, Day 10) | Sum of % necrosis in Peas (peas; Dose 0.000005, Day 14) | Sum of % necrosis in Peas (peas; Dose 0.00001, Day 0) | Sum of % necrosis in Peas (peas; Dose 0.00001, Day 1) | Sum of % necrosis in Peas (peas; Dose 0.00001, Day 3) | Sum of % necrosis in Peas (peas; Dose 0.00001, Day 7) | Sum of % necrosis in Peas (peas; Dose 0.00001, Day 10) | Sum of % necrosis in Peas (peas; Dose 0.00001, Day 14) | Sum of % necrosis in Peas (peas; Dose 0.00005, Day 0) | Sum of % necrosis in Peas (peas; Dose 0.00005, Day 1) | Sum of % necrosis in Peas (peas; Dose 0.00005, Day 3) | Sum of % necrosis in Peas (peas; Dose 0.00005, Day 7) | Sum of % necrosis in Peas (peas; Dose 0.00005, Day 10) | Sum of % necrosis in Peas (peas; Dose 0.00005, Day 14) | Sum of % necrosis in Peas (peas; Dose 0.0001, Day 0) | Sum of % necrosis in Peas (peas; Dose 0.0001, Day 1) | Sum of % necrosis in Peas (peas; Dose 0.0001, Day 3) | Sum of % necrosis in Peas (peas; Dose 0.0001, Day 7) | Sum of % necrosis in Peas (peas; Dose 0.0001, Day 10) | Sum of % necrosis in Peas (peas; Dose 0.0001, Day 14) | Sum of % necrosis in Peas (peas; Dose 0.0005, Day 0) | Sum of % necrosis in Peas (peas; Dose 0.0005, Day 1) | Sum of % necrosis in Peas (peas; Dose 0.0005, Day 3) | Sum of % necrosis in Peas (peas; Dose 0.0005, Day 7) | Sum of % necrosis in Peas (peas; Dose 0.0005, Day 10) | Sum of % necrosis in Peas (peas; Dose 0.0005, Day 14)
